Read-outs that look alike come from different tables or passages of the source. Each block holds one molecule with its values, some of them ahead of it.
What was measured:
[1] = system: A549 human lung carcinoma cell line; assay: MTT cytotoxicity assay in A549 cells: IC50 of single agents and combinations with PM01183; assay type: cell-based; details: Homo sapiens
Experimental: (§1) Additional serial dilutions were prepared in serum-free culture medium to achieve a final 4× concentration. Aliquots of 50 μL of each diluted compound were added per well.
A549 was the human lung carcinoma cell line selected for this assay.
(§2) a. […] Briefly, cells were harvested and seeded in 96 well microtiter plates at a density of 5,000 cells in 150 μL of culture medium and incubated for 24 hours in drug-free medium before treatment with vehicle alone or test compounds for 72 h.
(§3) The cytotoxic effect was measured by the MTT reduction assay, in which 3-(4,5-Dimethylthiazol-2-yl)-2,5-diphenyltetrazolium bromide, a tetrazole, which is reduced to purple formazan in the mitochondria of living cells, was used. MTT (50 μL of 1 mg/mL stock solution) was added to the wells and incubated for 8 hours at 37° C. until formazan crystals were formed. After gently removing the culture medium, DMSO was added to dissolve the insoluble purple formazan product into a colored solution. […] Results were expressed as percentage of control cell growth.
(§4) b. In a second set of assays, A549 human tumor cells were incubated with PM01183 in combination with each of the agents mentioned above.
(§5) As a visual aid, response values were plotted on a scatter plot with dose ratios given on the x-axis and % response values on the y-axis. […] In cases where response values at the two endpoints were approximately equivalent, points lying above or below this predicted line of additivity could be interpreted as representing antagonistic or synergistic drug interaction, respectively.

[2] = system: MDA-MB-231 human breast adenocarcinoma cell line; assay: cells; details: Homo sapiens, MDA-MB-231, 72 h
Experimental: as §2, §3, §4, §5, §1

[3] = system: IGROV-1 human ovarian adenocarcinoma cell line; assay: cells; details: Homo sapiens, IGROV-1, 72 h
Experimental: as §2, §3, §4, §5, §1
IGROV-1 was the human ovarian adenocarcinoma cell line selected for this assay.

[4] = system: RXF-393 human kidney carcinoma cell line; assay: cells; details: Homo sapiens, RXF 393, 72 h
Experimental: as §2, §3, §4, §5, §1

[5] = system: HepG2 human hepatocellular liver carcinoma cell line; assay: MTT cytotoxicity assay in HepG2 cells: IC50 of single agents and combinations with PM01183; assay type: cell-based; details: Homo sapiens
Experimental: as §2, §3, §4, §5, §1
HepG2 was the human hepatocellular liver carcinoma cell line selected for this assay.

[6] = system: HT-29 human colon adenocarcinoma cell line; assay: cells; details: Homo sapiens, HT-29, 72 h
Experimental: as §2, §3, §4, §5, §1
HT-29 was the human colon adenocarcinoma cell line selected for this assay.

[7] = system: A673 human rhabdomyosarcoma cell line; assay: cells; details: Homo sapiens, A673, 72 h
Experimental: as §2, §3, §4, §5, §1
A673 was the human rhabdomyosarcoma cell line selected for this assay.

[8] = system: HGC-27 human gastric carcinoma cell line; assay: cells; details: Homo sapiens, HGC-27, 72 h
Experimental: as §2, §3, §4, §5, §1
HGC-27 was the human gastric carcinoma cell line selected for this assay.

[9] = system: PC-3 human prostate cancer cell line; assay: cells; details: Homo sapiens, PC-3, 72 h
Experimental: as §2, §3, §4, §5, §1
PC-3 was the human prostate adenocarcinome cell line selected for this assay.

A2780 tumors = assay: Human ovarian tumor xenografts (A2780) in athymic nude mice, tumor volume % T/C; assay type: in vivo
Experimental: (§6) Female athymic nude mice (Harlan Laboratories Models, S.L. (Barcelona, Spain) were utilized for all experiments. Animals were housed in individually ventilated cages, up to ten per cage in a 12-hour light-dark cycle at 21-23° C. and 40-60% humidity. The mice were allowed free access to irradiated standard rodent diet and sterilized water. Animals were acclimated for at least 5 days prior to tumor implantation with a tumor cell suspension.
The formula to calculate volume for a prolate ellipsoid was used to estimate tumor volume (mm^3) from 2-dimensional tumor measurements: Tumor volume (mm^3)=[L×W^2]÷2, where L is the length and it is the longest diameter in mm, and W is the width and it is the shortest diameter in mm of a tumor. Assuming unit density, volume was converted to weight (i.e., 1 mm^3=1 mg). Tumor volume and animal body weights were measured 2-3 times per week starting form the first day of treatment (Day 0).
PM01183 was provided in the form of vials of lyophilized PM01183 cake which was reconstituted with water for infusion to a concentration of 0.2 mg/mL. The PM01183 stock solution was further diluted in 5% glucose solution for injection to the dosing formulation concentrations. […] Vinorelbine was provided as a solution prepared by diluting the product with 0.9% saline solution.
Dose level groups were administered either as single agents or in combination.
(§7) Comparison of the median tumor volume in the treatment groups (T) to the median tumor volume in the control group (T/C×100%) was used for evaluation of the antitumor efficacy.
Day 9 for PM01183 and vinorelbine study) using the median-effect principle (Chou T. C. Pharmacol. Rev.

U87-MG tumors = assay: Human brain tumor xenografts (U87-MG) in athymic nude mice, tumor volume % T/C; assay type: in vivo
Experimental: as §6
The tumor model used in these studies was U87-MG cell line, which was obtained from the American Type Culture Collection (ATCC HTB-14™).
U87-MG cells were grown at 37° C. with 5% CO2 in Minimum Essential Medium Eagle (MEME). Each animal was subcutaneously implanted on the right flank, using 26G needle and a 1 cc syringe, with 5×10^6 U87-MG cells, from in vitro passage 5, in 0.05 mL suspension of 50% Matrigel and 50% serum free medium, without antibiotics.
PM01183 was provided in the form of vials of lyophilized PM01183 cake which was reconstituted with water for infusion to a concentration of 0.2 mg/mL. The PM01183 stock solution was further diluted in 5% glucose solution for injection to the dosing formulation concentrations. Temozolomide was provided as a solution prepared by diluting the product in DMSO 10% in 0.9% saline solution for injection to the target final concentration.
In these experiments, PM01183 and temozolomide treatments, as well as placebo, were administered as follows: PM01183, intravenously once per week up to 3 consecutive weeks, on Days 0, 7 and 14, temozolomide orally, in a daily basis during 8 consecutive days (Days 0 to 7), and placebo was administered following the same schedule as those provided for PM01183 and temozolomide. Dose level groups were administered either as single agents or in combination.
as §7

[10] = paclitaxel 6.25 mg/kg iv days 0,7
[11] = paclitaxel 12.5 mg/kg iv days 0,7
[12] = paclitaxel 18.75 mg/kg iv days 0,7
[13] = paclitaxel 25 mg/kg iv days 0,7
[14] = vinorelbine 4.0 mg/kg iv days 0,7
[15] = vinorelbine 8.0 mg/kg iv days 0,7
[16] = temozolomide 1.5 mg/kg orally daily days 0 to 7
[17] = temozolomide 3 mg/kg orally daily days 0 to 7

SMILES: O=NN(CCCl)C(=O)NCCCl [Carmustine, carmustine]
IC50 ([1]; A549, 72 hours drug exposure, MTT, read-out: IC50): 1000 µM
IC50 [2]: 900 µM
IC50 [3]: 712 µM

SMILES: O=P1(N(CCCl)CCCl)NCCCO1 (centres unmarked) [Cyclophosphamide, cyclophosphamide]
IC50 ([1]; A549, 72 h): 1000 µM
IC50 [2]: 1000 µM
IC50 [4]: 1000 µM
IC50 ([5]; HepG2, 72 h): 1000 µM
IC50 [3]: 1000 µM
IC50 [6]: 1000 µM
IC50 [7]: 1000 µM
IC50 [8]: 1000 µM

SMILES: CC(C)C(=O)Nc1ccc([N+](=O)[O-])c(C(F)(F)F)c1 [Flutamide, flutamide]
IC50 [9]: 49 µM

SMILES: CC(=O)O[C@H]1C(=O)[C@@]2(C)[C@H]([C@H](OC(=O)c3ccccc3)[C@]3(O)C[C@H](OC(=O)[C@H](O)[C@@H](NC(=O)c4ccccc4)c4ccccc4)C(C)=C1C3(C)C)[C@]1(OC(C)=O)CO[C@@H]1C[C@@H]2O [Paclitaxel, paclitaxel]
IC50 ([1]; A549, 72 h): 0.04 µM
IC50 [2]: 0.0085 µM
IC50 ([5]; HepG2, 72 h): 0.057 µM
IC50 [3]: 0.095 µM
% T/C on day 0 (A2780 tumors; [10]): 94.3%
% T/C on day 3 (A2780 tumors; [10]): 60.2%
% T/C on day 5 (A2780 tumors; [10]): 79.7%
% T/C on day 7 (A2780 tumors; [10]): 81.3%
% T/C on day 10 (A2780 tumors; [10]): 59.2%
% T/C on day 0 (A2780 tumors; [11]): 96.2%
% T/C on day 3 (A2780 tumors; [11]): 62.5%
% T/C on day 5 (A2780 tumors; [11]): 73.9%
% T/C on day 7 (A2780 tumors; [11]): 62.5%
% T/C on day 10 (A2780 tumors; [11]): 50.8%
% T/C on day 0 (A2780 tumors; [12]): 95.0%
% T/C on day 3 (A2780 tumors; [12]): 60.4%
% T/C on day 7 (A2780 tumors; [12]): 41.5%
% T/C on day 10 (A2780 tumors; [12]): 31.1%
% T/C on day 0 (A2780 tumors; [13]): 95.3%
% T/C on day 3 (A2780 tumors; [13]): 49.3%
% T/C on day 7 (A2780 tumors; [13]): 34.0%
% T/C on day 10 (A2780 tumors; [13]): 19.8%
IC50 [9]: 0.09 µM
IC50 [8]: 0.005 µM

SMILES: CCC1=C[C@@H]2CN(C1)Cc1c([nH]c3ccccc13)[C@@](C(=O)OC)(c1cc3c(cc1OC)N(C)[C@H]1[C@@](O)(C(=O)OC)[C@H](OC(C)=O)[C@]4(CC)C=CCN5CC[C@]31[C@@H]54)C2 [Vinorelbine, vinorelbine]
IC50 [2]: 12 µM
IC50 [4]: 8.5 µM
IC50 ([5]; HepG2, 72 hours drug exposure, MTT, read-out: IC50): 1.02 µM
IC50 [3]: 1.39 µM
IC50 [6]: 0.03 µM
% T/C on day 0 (A2780 tumors; [14]): 97.2%
% T/C on day 2 (A2780 tumors; [14]): 88.6%
% T/C on day 5 (A2780 tumors; [14]): 69.3%
% T/C on day 7 (A2780 tumors; [14]): 81.7%
% T/C on day 9 (A2780 tumors; [14]): 77.3%
% T/C on day 0 (A2780 tumors; [15]): 97.6%
% T/C on day 2 (A2780 tumors; [15]): 79.5%
% T/C on day 5 (A2780 tumors; [15]): 45.0%
% T/C on day 7 (A2780 tumors; [15]): 54.2%
% T/C on day 9 (A2780 tumors; [15]): 47.9%
IC50 [9]: 10 µM
IC50 [7]: 0.05 µM
IC50 [8]: 0.065 µM

IC50 [3]: 2.88 µM
IC50 [7]: 2.16 µM
SMILES: O=C(CCCCCCC(=O)Nc1ccccc1)NO [Vorinostat, vorinostat]

SMILES: Cn1nnc2c(C(N)=O)ncn2c1=O [temozolomide]
% T/C on day 0 (U87-MG tumors; Temozolomide 1.0 mg/kg): 98.2%
% T/C on day 2 (U87-MG tumors; Temozolomide 1.0 mg/kg): 100.2%
% T/C on day 4 (U87-MG tumors; Temozolomide 1.0 mg/kg): 65.1%
% T/C on day 7 (U87-MG tumors; Temozolomide 1.0 mg/kg): 81.2%
% T/C on day 9 (U87-MG tumors; Temozolomide 1.0 mg/kg): 55.0%
% T/C on day 11 (U87-MG tumors; Temozolomide 1.0 mg/kg, day 11): 63.5%
% T/C on day 14 (U87-MG tumors; Temozolomide 1.0 mg/kg, day 14): 73.1%
% T/C on day 16 (U87-MG tumors; Temozolomide 1.0 mg/kg, day 16): 75.0%
% T/C on day 0 (U87-MG tumors; Temozolomide 1.5 mg/kg): 94.1%
% T/C on day 2 (U87-MG tumors; Temozolomide 1.5 mg/kg): 96.9%
% T/C on day 4 (U87-MG tumors; Temozolomide 1.5 mg/kg): 75.6%
% T/C on day 7 (U87-MG tumors; Temozolomide 1.5 mg/kg): 73.0%
% T/C on day 9 (U87-MG tumors; Temozolomide 1.5 mg/kg): 56.5%
% T/C on day 11 (U87-MG tumors; Temozolomide 1.5 mg/kg, day 11): 59.3%
% T/C on day 14 (U87-MG tumors; Temozolomide 1.5 mg/kg, day 14): 50.0%
% T/C on day 16 (U87-MG tumors; Temozolomide 1.5 mg/kg, day 16): 53.5%
% T/C on day 0 (U87-MG tumors; Temozolomide 3.0 mg/kg): 97.1%
% T/C on day 2 (U87-MG tumors; Temozolomide 3.0 mg/kg): 95.5%
% T/C on day 4 (U87-MG tumors; Temozolomide 3.0 mg/kg): 67.3%
% T/C on day 7 (U87-MG tumors; Temozolomide 3.0 mg/kg): 39.4%
% T/C on day 9 (U87-MG tumors; Temozolomide 3.0 mg/kg): 25.3%
% T/C on day 11 (U87-MG tumors; Temozolomide 3.0 mg/kg, day 11): 22.9%
% T/C on day 14 (U87-MG tumors; Temozolomide 3.0 mg/kg, day 14): 28.4%
% T/C on day 16 (U87-MG tumors; Temozolomide 3.0 mg/kg, day 16): 31.5%
% T/C on day 11 (U87-MG tumors; [16]): 59.3%
% T/C on day 14 (U87-MG tumors; [16]): 50.0%
% T/C on day 16 (U87-MG tumors; [16]): 53.5%
% T/C on day 11 (U87-MG tumors; [17]): 22.9%
% T/C on day 14 (U87-MG tumors; [17]): 28.4%
% T/C on day 16 (U87-MG tumors; [17]): 31.5%
